# Test results: patent US12104170B2, “Methods for deriving dopaminergic neurons from pluripotent stem cells” (MINERVA BIOTECHNOLOGIES CORPORATION, priority 2020, dated 2024)
# Columns and labels:
# [1] = test system: human iPS cells differentiating to dopaminergic neurons; assay: Addition of forms of vitamin B6 or vitamin A around Day 20 of differentiation (morphology, markers, neural projections); format: cell-based; conditions: for empirically determined optimal concentration: added around Day 20 and onward, final concentration; for effect of adding vitamin B6 form on dopaminergic neurons: added starting around Day 21, retinol, retinyl acetate and vitamin C in all conditions (FIG. 16)
# Method: In this next set of experiments, we followed Protocol A, except that around Day 20, the neural base media will be exchanged for one that contains approximately 1.2 uM retinol and 0.17 uM retinyl acetate and various other forms of vitamin B6 were then added (FIG. 1, Example 2). Resultant cells were analyzed for cell morphology, yield of TH and DAT positive cells relative to Tuj1 positivity and the number and length of neural projections as an indicator of engraftment potential.
# We assessed the effects of various forms of vitamin B6 on differentiation of dopaminergic neurons from human iPS cells. […] The differentiation protocol called Protocol A (FIG. 1) was followed until Day 20. From Day 21 onward, to the basal media was added vitamin A in the form of retinol at 1.2 uM and retinyl acetate at 0.17 uM and vitamin C as ascorbic acid-2-phosphate at a final concentration of about 200 nM. It is important to note that the neural basal media that was used in all conditions contained 10 uM pyridoxal, so pyridoxal at this low concentration was present from the onset of differentiation.
# In addition to the vitamins A and C which were constant throughout all conditions, various forms of vitamin B6 were added: 16 uM pyridoxine (FIG. 12A-12K), or 11 uM pyridoxal (FIG. 13A-13K), or 20 uM pyridoxal-5′-phosphate also known as PLP (FIG. 14A-14K), or all of the vitamin Bs. To assess the quality of the resultant dopaminergic neurons we examined: a) the percentage of the GIRK2 positive cells that were also positive for TH, Tyrosine hydroxylase which is an enzyme that mediates the conversion of L-tyrosine to L-3,4-dihydroxyphenylalanine, which is the rate limiting step in dopamine synthesis; this percentage should be high as an indicator of yield of the desired cell type -dopaminergic neurons; b) The percentage of TUJ positive neurons that were also TH positive; TUJ is a pleiotropic marker of neurons; only those that are TH positive are truly dopaminergic neurons; c) the percentage of the TUJ positive cells that are also positive for DAT, the dopamine transporter protein; d) the shape of the cell body should have the characteristic elongated triangular shape of neurons; and e) the length and number of neural projections associated with being TH and DAT positive. For engraftment, the length and number of neural projections is considered to be the most important factor.
# [2] = test system: human iPS cells differentiated to dopaminergic neurons; assay: Immunofluorescent staining for GIRK2, TH, DAT, Tuj1 and morphology (yield and purity of dopaminergic neurons); format: cell-based; conditions: iPSCs grown in E8 plus WNT3A for 48 hours before initiating differentiation
# Method: On Day 24, immunofluorescent staining was performed to detect the presence of molecular markers of dopaminergic neuron progenitors generated using Protocol A (FIG. 2A-FIG. 2L) or Protocol C.2 (FIG. 3A-FIG. 3L). GIRK2 (G-protein-regulated inward-rectifier potassium channel 2) is expressed in dopaminergic neurons while Tuj1 (neuron-specific class Ill B-tubulin) is a pan-neural marker. TH (tyrosine hydroxylase) is considered a gold standard in the identification of dopaminergic neurons because it is an enzyme that catalyzes the conversion of L-tyrosine to L-3,4-dihydroxyphenylalanine, which is the rate limiting step in dopamine synthesis. DAT (dopamine active transporter) is equally important as it is the transmembrane protein that pumps dopamine from the synapse back into the cytosol. Both differentiation protocols produced cells that were positive for all appropriate molecular markers. […]
# In addition to the vitamins A and C which were constant throughout all conditions, various forms of vitamin B6 were added: 16 uM pyridoxine (FIG. 12A-12K), or 11 uM pyridoxal (FIG. 13A-13K), or 20 uM pyridoxal-5′-phosphate also known as PLP (FIG. 14A-14K), or all of the vitamin Bs. […] FIG. 17 is a graph of the amount of dopamine and its metabolites, measured by HPLC, present in the conditioned media from only 200,000 cells taken at Day 30, Day 40, Day 50 or Day 60. […]
Molecule,empirically determined optimal concentration [1],effect of adding vitamin B6 form on dopaminergic neurons [1],survival of differentiating cells [2]
Cc1ncc(COP(=O)(O)O)c(C=O)c1O [pyridoxal-5′-phosphate],10 to 40 µM,greatly increase dopamine yield and engraftment potential,
Cc1ncc(CO)c(C=O)c1O [pyridoxal],5 to 20 µM,greatly increase dopamine yield and engraftment potential,
Cc1ncc(CO)c(CO)c1O [pyridoxine],10 to 20 µM,,
"WNT3A: beta-catenin agonist added to pluripotent stem cell media at 100 ng/mL for 48 hours before differentiation (protein, UniProt P56704 19-352, looked up) Protein Wnt-3a: SYPIWWSLAVGPQYSSLGSQPILCASIPGLVPKQLRFCRNYVEIMPSVAEGIKIGIQECQHQFRGRRWNCTTVHDSLAIFGPVLDKATRESAFVHAIASAGVAFAVTRSCAEGTAAICGCSSRHQGSPGKGWKWGGCSEDIEFGGMVSREFADARENRPDARSAMNRHNNEAGRQAIASHMHLKCKCHGLSGSCEVKTCWWSQPDFRAIGDFLKDKYDSASEMVVEKHRESRGWVETLRPRYTYFKVPTERDLVYYEASPNFCEPNPETGSFGTRDRTCNVSSHGIDGCDLLCCGRGHNARAERRREKCRCVFHWCCYVSCQECTRVYDVHTCK",,,increased survival at Day 60
